The source of these data is article PMC6491818, “Novel 4-Acrylamido-Quinoline Derivatives as Potent PI3K/mTOR Dual Inhibitors: The Design, Synthesis, and in vitro and in vivo Biological Evaluation” (Frontiers in Chemistry, 2019).

Assay [1] deals with colorectal cancer HCT116 cell line. Description: Anti-proliferative SRB assay, HCT116. Type of assay: cell-based. The note with it: 72 h exposure; for GI50: Homo sapiens, HCT-116, HCT116 cells; for GI50 HCT116: HCT116 cells. Here is the method:
(§1) The anti-proliferative activity of compounds was evaluated by sulforhodamin B (SRB) assay. After being cultured for 10 h, cells in 96-well plates were subjected to 72 h-exposure to serially diluted compound solutions. Cells were washed with PBS and fixed with trichloroacetic acid (10%, W/V) at 4°C for 1 h. Then, cells were successively washed with PBS, stained for 0.5 h with SRB (0.4%, dissolved in 1% acetic acid), and washed by 1% acetic acid for 5 times. Protein-bound dye was extracted with unbuffered Tris base (10 mmol). After calculating the percent inhibition from absorbance, measured at 515 nm with a multiscan spectrum (Thermo Electron Co., Vantaa, Finland), the curves were fitted in Graphpad Prism 5 to give GI50 values.
A general note: In SRB staining, fixed cells bind dye roughly in proportion to their protein.

In assay [2] the target is PI3Kα (Homo sapiens, UniProt P42336). The assay can be described thus: PI3Kα enzymatic assay (Kinase-Glo Luminescent Kinase assay). Type of assay: biochemical. For orientation: Kinase-Glo reads ATP consumption through a luciferase reaction.
Sequence of PI3Kα (P42336 whole entry): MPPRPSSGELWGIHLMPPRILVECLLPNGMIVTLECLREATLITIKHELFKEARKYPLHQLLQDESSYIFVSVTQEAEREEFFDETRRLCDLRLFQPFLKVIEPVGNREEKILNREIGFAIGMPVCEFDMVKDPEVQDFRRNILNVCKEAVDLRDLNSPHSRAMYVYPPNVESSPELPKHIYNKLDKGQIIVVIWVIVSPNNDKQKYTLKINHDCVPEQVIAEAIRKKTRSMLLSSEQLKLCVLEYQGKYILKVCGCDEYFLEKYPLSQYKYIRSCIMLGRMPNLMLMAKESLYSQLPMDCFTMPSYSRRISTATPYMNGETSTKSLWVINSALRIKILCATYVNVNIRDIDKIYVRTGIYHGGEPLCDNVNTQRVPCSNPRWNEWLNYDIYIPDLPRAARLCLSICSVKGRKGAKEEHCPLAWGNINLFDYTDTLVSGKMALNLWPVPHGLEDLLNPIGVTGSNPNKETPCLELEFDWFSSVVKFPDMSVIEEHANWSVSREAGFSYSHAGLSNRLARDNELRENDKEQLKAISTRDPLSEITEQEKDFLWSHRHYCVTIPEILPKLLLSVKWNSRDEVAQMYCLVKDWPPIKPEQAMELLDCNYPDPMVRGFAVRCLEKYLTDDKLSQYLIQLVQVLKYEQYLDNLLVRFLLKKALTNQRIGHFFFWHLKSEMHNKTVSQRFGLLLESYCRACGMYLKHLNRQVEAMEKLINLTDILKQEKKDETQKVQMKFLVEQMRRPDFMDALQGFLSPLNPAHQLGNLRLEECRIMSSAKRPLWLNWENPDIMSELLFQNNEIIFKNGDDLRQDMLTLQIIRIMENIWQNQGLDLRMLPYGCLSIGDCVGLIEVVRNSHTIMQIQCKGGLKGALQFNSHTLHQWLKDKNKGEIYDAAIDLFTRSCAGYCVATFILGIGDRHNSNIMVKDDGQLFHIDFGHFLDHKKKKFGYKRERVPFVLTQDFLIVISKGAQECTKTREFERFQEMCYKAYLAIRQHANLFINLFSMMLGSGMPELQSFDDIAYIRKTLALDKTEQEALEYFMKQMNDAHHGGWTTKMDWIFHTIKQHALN
Sequence of PI3Kα (P27986 whole entry partner): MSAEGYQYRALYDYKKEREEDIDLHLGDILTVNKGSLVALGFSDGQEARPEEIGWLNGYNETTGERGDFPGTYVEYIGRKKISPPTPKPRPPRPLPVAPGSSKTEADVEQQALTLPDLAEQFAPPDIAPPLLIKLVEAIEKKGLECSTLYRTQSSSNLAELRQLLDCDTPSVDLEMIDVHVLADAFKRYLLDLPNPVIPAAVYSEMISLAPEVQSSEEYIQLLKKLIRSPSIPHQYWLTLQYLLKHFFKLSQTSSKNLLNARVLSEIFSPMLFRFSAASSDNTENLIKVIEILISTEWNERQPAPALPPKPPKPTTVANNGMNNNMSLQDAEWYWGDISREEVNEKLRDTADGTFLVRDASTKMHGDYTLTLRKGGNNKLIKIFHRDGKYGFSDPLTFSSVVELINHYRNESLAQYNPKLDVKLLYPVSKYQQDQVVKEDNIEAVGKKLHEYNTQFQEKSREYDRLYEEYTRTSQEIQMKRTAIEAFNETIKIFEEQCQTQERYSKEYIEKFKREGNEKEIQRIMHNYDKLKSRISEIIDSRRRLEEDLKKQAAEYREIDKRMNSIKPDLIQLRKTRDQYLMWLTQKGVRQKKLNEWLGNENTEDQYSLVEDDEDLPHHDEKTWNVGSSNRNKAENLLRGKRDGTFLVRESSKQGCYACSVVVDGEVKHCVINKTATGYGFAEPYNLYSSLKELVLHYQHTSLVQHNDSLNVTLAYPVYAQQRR
Protocol: (§2) Kinase-Glo Luminescent Kinase assay (Promega) was performed to determine the PI3Kα inhibitory activity, while ADP-Glo Luminescent assay (Promega) was performed to identify the inhibitory activity against PI3Kβ, γ, or δ. The kinase buffer was composed of HEPES (50 mM, pH 7.5), MgCl2 (3 mM), EGTA (1 mM), NaCl (100 mM), CHAPS (0.03%) and DTT (2 mM). The serially diluted compound solutions (2.5 mL) were successively added to a 384-well plate. Afterwards, the solution of kinase (2.5 mL) in the kinase buffer and the solution of substrate (5 mL) in the kinase buffer containing PIP2 and ATP were added to each well of the assay plate for starting the reaction. Kinase buffer was added instead to the control well without enzyme. […] After being incubated at room temperature for 1 h, Kinase-Glo reagent (10 mL) was added to each well of the PI3Kα assay plate to quench the reaction. […] The mixture was treated briefly with centrifuge, shaken slowly, and equilibrated for 40 min. Kinase Detection reagent (10 mL) was added to each well. Before reading on a plate reader for luminescence, the resultant mixture was incubated at room temperature for 1 h. After calculating the percent inhibition from the RLU values, the curves were fitted in Graphpad Prism 5 to give IC50 values.
Assay [3] deals with prostate cancer PC3 cell line. The assay can be described thus: Anti-proliferative SRB assay, PC3. The class given is cell-based. The note with it: PC3 cells, 72 h exposure. On the procedure: as §1
Assay [4] has as its target PI3Kβ (Homo sapiens, UniProt P42338). The assay can be described thus: PI3Kβ enzymatic assay (ADP-Glo Luminescent assay). The class given is biochemical.
Protocol: as §2
Assay [5] concerns the target PI3Kδ (Homo sapiens, UniProt O00329). Description: PI3Kδ enzymatic assay (ADP-Glo Luminescent assay). Type of assay: biochemical. On the technique in general: ADP-Glo first removes unused ATP, then detects ADP through luciferase.
Protocol: as §2
Assay [6] has as its target mTOR (1362-end, Millipore) (Homo sapiens, UniProt P42345). Description: mTOR enzymatic assay (Lance Ultra assay). Type of assay: biochemical.
Protocol: The kinase buffer was composed of HEPES (50 mM, pH 7.5), MgCl2 (10 mM), EGTA (1 mM), MnCl2 (3 mM), Tween-20 (0.01%) and DTT (2 mM). The solution of substrate in the kinase buffer contained ULight-4E-BP1 peptide (Thr37/46, PE) and ATP. […] After being incubated at room temperature for 1 h, kinase detection buffer (10 mL) containing EDTA and Eu-anti-phospho-4E-BP1 antibody (Thr37/46, PE) was added to each well of the assay plate. Before reading on a plate reader, the mixture needs to be mixed briefly with centrifuge and then allowed to equilibrate for 1 h. After calculating the percent inhibition from Lance signal, the curves were fitted in Graphpad Prism 5 to give IC50 values.
The target of assay [7] is PI3Kγ (Homo sapiens, UniProt P48736). The assay can be described thus: PI3Kγ enzymatic assay (ADP-Glo Luminescent assay). Type of assay: biochemical. On the procedure:
Kinase-Glo Luminescent Kinase assay (Promega) was performed to determine the PI3Kα inhibitory activity, while ADP-Glo Luminescent assay (Promega) was performed to identify the inhibitory activity against PI3Kβ, γ, or δ. The kinase buffer was composed of HEPES (50 mM, pH 7.5), MgCl2 (3 mM), EGTA (1 mM), NaCl (100 mM), CHAPS (0.03%) and DTT (2 mM). The serially diluted compound solutions […] were successively added to a 384-well plate. Afterwards, the solution of kinase […] in the kinase buffer and the solution of substrate (5 mL) in the kinase buffer containing PIP2 and ATP were added to each well of the assay plate for starting the reaction. Kinase buffer was added instead to the control well without enzyme. The final concentrations of PI3Kα, PI3Kβ, PI3Kγ, PI3Kδ, PIP2, and ATP in corresponding kinase reaction mixture were 1.65 nM, 4.8 nM, 7.6 nM, 5.7 nM, […], respectively. After being incubated at room temperature for 1 h, Kinase-Glo reagent […] was added to each well of the PI3Kα assay plate to quench the reaction. Subsequently, the mixture needs to be mixed briefly with centrifuge and shaken slowly for 15 min before being read on a plate reader for luminescence. As for PI3Kβ, γ, or δ, reaction mixture (5 mL) was transferred to a new 384-plate and ADP-Glo reagent (5 mL) was added for stopping the reaction. The mixture was treated briefly with centrifuge, shaken slowly, and equilibrated for 40 min. Kinase Detection reagent […] was added to each well. Before reading on a plate reader for luminescence, the resultant mixture was incubated at room temperature for 1 h. After calculating the percent inhibition from the RLU values, the curves were fitted in Graphpad Prism 5 to give IC50 values.

Sequence of PI3Kγ (P48736 whole entry): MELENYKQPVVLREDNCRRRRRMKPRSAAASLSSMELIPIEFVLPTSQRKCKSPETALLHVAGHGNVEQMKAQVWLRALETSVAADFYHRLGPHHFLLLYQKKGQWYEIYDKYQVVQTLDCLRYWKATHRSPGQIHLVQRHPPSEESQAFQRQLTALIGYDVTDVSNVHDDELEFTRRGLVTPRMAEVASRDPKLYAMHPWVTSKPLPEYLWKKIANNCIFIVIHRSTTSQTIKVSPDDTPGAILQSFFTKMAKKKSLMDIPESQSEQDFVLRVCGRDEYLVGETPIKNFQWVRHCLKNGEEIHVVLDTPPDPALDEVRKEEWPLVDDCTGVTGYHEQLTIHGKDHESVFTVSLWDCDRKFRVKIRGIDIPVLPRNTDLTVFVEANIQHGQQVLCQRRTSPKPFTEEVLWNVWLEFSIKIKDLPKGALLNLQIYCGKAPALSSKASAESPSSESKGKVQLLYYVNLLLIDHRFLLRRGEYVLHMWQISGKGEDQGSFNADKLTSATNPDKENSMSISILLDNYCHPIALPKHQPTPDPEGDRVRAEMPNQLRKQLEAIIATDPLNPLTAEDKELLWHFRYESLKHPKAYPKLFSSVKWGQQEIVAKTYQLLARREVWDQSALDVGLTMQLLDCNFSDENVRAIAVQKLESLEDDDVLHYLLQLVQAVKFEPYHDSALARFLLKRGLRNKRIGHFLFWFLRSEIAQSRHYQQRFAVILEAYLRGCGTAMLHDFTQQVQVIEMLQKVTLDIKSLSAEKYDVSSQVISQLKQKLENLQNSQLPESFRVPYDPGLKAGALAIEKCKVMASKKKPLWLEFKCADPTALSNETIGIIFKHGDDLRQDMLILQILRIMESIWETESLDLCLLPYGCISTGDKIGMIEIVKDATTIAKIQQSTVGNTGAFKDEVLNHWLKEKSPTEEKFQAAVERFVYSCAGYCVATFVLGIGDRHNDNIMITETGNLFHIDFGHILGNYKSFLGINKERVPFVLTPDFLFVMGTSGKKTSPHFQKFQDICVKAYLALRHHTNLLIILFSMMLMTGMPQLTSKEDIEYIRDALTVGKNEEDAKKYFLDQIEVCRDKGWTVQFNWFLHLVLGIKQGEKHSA
Sequence of PI3Kβ (P42338 whole entry): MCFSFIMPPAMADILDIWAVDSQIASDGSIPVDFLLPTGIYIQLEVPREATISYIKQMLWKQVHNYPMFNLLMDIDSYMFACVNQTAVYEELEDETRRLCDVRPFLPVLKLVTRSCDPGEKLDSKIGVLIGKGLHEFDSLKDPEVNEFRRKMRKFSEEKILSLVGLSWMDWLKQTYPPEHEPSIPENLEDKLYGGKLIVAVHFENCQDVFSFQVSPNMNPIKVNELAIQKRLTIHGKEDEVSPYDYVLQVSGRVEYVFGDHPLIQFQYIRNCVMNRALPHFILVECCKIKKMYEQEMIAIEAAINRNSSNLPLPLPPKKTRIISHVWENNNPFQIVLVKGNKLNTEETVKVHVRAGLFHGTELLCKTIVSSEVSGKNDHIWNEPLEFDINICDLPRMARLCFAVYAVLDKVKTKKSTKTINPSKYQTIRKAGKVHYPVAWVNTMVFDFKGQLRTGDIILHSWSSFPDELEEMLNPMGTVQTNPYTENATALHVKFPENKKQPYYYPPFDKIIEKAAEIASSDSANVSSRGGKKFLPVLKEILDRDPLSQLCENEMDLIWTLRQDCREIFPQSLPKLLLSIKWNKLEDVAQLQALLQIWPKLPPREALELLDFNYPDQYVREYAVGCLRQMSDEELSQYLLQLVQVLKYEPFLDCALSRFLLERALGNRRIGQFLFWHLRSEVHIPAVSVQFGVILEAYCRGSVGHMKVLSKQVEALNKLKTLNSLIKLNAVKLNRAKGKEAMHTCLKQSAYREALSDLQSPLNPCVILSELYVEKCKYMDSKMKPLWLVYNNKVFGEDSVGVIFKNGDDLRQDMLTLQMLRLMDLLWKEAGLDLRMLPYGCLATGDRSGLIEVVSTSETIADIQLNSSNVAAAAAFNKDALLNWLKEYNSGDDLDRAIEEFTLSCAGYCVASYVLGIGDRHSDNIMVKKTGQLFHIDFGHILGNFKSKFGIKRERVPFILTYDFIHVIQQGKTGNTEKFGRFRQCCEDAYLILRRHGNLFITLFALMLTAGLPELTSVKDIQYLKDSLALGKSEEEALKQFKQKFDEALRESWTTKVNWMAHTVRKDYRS
Sequence of PI3Kβ (P27986 whole entry partner): as the sequence (P27986 whole entry partner) above
Sequence of PI3Kδ (O00329 whole entry): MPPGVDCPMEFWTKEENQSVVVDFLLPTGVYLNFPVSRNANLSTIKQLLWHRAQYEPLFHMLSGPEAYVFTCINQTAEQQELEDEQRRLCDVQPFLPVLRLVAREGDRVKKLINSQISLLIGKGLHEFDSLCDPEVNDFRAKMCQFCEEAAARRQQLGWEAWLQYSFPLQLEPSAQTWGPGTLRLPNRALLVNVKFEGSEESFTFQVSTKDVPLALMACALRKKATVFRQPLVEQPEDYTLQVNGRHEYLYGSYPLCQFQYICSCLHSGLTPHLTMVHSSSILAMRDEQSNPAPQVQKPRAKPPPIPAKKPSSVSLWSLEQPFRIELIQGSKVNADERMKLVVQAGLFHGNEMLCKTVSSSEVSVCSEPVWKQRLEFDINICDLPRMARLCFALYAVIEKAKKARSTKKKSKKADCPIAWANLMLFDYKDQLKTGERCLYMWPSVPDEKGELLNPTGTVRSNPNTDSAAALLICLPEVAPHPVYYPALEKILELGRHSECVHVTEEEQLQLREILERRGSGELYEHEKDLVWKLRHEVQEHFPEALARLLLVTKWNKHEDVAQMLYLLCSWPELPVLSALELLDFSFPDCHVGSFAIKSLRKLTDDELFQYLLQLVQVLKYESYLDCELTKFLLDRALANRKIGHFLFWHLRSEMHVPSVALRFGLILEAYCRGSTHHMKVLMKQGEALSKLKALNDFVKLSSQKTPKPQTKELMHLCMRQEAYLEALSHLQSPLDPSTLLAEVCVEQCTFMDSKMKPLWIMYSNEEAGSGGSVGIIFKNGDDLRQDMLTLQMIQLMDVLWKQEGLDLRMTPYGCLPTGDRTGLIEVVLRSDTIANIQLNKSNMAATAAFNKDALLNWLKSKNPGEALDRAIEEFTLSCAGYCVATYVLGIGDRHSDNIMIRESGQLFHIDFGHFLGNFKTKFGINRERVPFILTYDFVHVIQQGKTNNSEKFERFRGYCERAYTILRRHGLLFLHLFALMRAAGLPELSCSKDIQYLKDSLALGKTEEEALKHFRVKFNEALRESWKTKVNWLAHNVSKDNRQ
Sequence of PI3Kδ (P27986 whole entry partner): as the sequence (P27986 whole entry partner) above

The GI50 is the concentration giving 50% growth inhibition. Broadly, the IC50 is the midpoint of a concentration-inhibition curve. As to `COc1ncc(-c2ccc3nccc(/C=C/C(=O)NC(C)(C)C)c3c2)cc1NS(=O)(=O)c1ccc(F)cc1F` [8a, (E)-N-(tert-butyl)-3-(6-(5-((2,4-difluorophenyl)sulfonamido)-6-methoxypyridin-3-yl)quinolin-4-yl)acrylamide], the 50% growth inhibitory concentration (GI50) in assay [1] was found to be 700 nM; in assay [3] (Homo sapiens, PC-3, 72 h), 1900 nM. In assay [2], half-maximal inhibition (IC50) required 0.63 nM.
As to `COCCNC(=O)/C=C/c1ccnc2ccc(-c3cnc(OC)c(NS(=O)(=O)c4ccc(F)cc4F)c3)cc12` [8b, (E)-3-(6-(5-((2,4-difluorophenyl)sulfonamido)-6-methoxypyridin-3-yl)quinolin-4-yl)-N-(2-methoxyethyl)acrylamide], the GI50 in assay [1] stood at 1130 nM; in assay [3] (Homo sapiens, PC-3, 72 h), 840 nM. Further, in assay [2], 2.03 nM corresponded to half-maximal inhibition (IC50).
Regarding `COc1ncc(-c2ccc3nccc(/C=C/C(=O)N(C)CCO)c3c2)cc1NS(=O)(=O)c1ccc(F)cc1F` [8c, (E)-3-(6-(5-((2,4-difluorophenyl)sulfonamido)-6-methoxypyridin-3-yl)quinolin-4-yl)-N-(2-hydroxyethyl)-N-methylacrylamide], in assay [1], the “GI50 HCT116” value is listed as “sub-micromolar”. For the same compound, the concentration for 50% growth inhibition (GI50) is 960 nM in assay [1]; less than 500 nM in assay [3] (Homo sapiens, PC-3, 72 h); 450 nM in assay [3]. Besides, the IC50 in assay [4] worked out at 1.2 nM; in assay [5] it was 1.3 nM; in assay [2], 0.67 nM; in assay [6] it was 1.2 nM; in assay [7] it was 0.5 nM.
Consider `COc1ncc(-c2ccc3nccc(/C=C/C(=O)NC4CC4)c3c2)cc1NS(=O)(=O)c1ccc(F)cc1F` [8d, (E)-N-cyclopropyl-3-(6-(5-((2,4-difluorophenyl)sulfonamido)-6-methoxypyridin-3-yl)quinolin-4-yl)acrylamide], for which the GI50 in assay [1] was 1560 nM; in assay [3] (Homo sapiens, PC-3, 72 h), 1870 nM. In assay [2], this compound displayed an IC50 of 1.03 nM.
Take `COc1ncc(-c2ccc3nccc(/C=C/C(=O)NC4CCC4)c3c2)cc1NS(=O)(=O)c1ccc(F)cc1F` [8e, (E)-N-cyclobutyl-3-(6-(5-((2,4-difluorophenyl)sulfonamido)-6-methoxypyridin-3-yl)quinolin-4-yl)acrylamide]: the GI50 turned out to be 1250 nM in assay [1] and 1480 nM in assay [3] (Homo sapiens, PC-3, 72 h). Further, the IC50 in assay [2] was found to be 1.43 nM.
With `COc1ncc(-c2ccc3nccc(/C=C/C(=O)N4CCCC4)c3c2)cc1NS(=O)(=O)c1ccc(F)cc1F` [8f, (E)-2,4-difluoro-N-(2-methoxy-5-(4-(3-oxo-3-(pyrrolidin-1-yl)prop-1-en-1-yl)quinolin-6-yl)pyridin-3-yl)benzenesulfonamide], the GI50 amounted to 1460 nM in assay [1] and 950 nM in assay [3] (Homo sapiens, PC-3, 72 h). Further, in assay [2], half-maximal inhibition (IC50) was put at 0.62 nM.
Take `COc1ncc(-c2ccc3nccc(/C=C/C(=O)N4CCCCC4)c3c2)cc1NS(=O)(=O)c1ccc(F)cc1F` [8g, (E)-2,4-difluoro-N-(2-methoxy-5-(4-(3-oxo-3-(piperidin-1-yl)prop-1-en-1-yl)quinolin-6-yl)pyridin-3-yl)benzenesulfonamide]: the GI50 in assay [1] was 1300 nM; in assay [3] (Homo sapiens, PC-3, 72 h), 2500 nM. 0.68 nM corresponded to half-maximal inhibition in assay [2] (IC50).
As for `COc1ncc(-c2ccc3nccc(/C=C/C(=O)N4CCOCC4)c3c2)cc1NS(=O)(=O)c1ccc(F)cc1F` [8h, (E)-2,4-difluoro-N-(2-methoxy-5-(4-(3-morpholino-3-oxoprop-1-en-1-yl)quinolin-6-yl)pyridin-3-yl)benzenesulfonamide], the “GI50 HCT116” value in assay [1] is “sub-micromolar”. In addition, the GI50 is 510 nM in assay [1]; less than 500 nM in assay [3] (Homo sapiens, PC-3, 72 h); 360 nM in assay [3]. In assay [2], this compound displayed a half-maximal inhibitory concentration (IC50) of 0.53 nM.
On to `COc1ncc(-c2ccc3nccc(/C=C/C(=O)N4CCN(C(C)C)CC4)c3c2)cc1NS(=O)(=O)c1ccc(F)cc1F` [8j, (E)-2,4-difluoro-N-(5-(4-(3-(4-isopropylpiperazin-1-yl)-3-oxoprop-1-en-1-yl)quinolin-6-yl)-2-methoxypyridin-3-yl)benzenesulfonamide], for which the 50% growth inhibitory concentration (GI50) amounted to 970 nM in assay [1] and 880 nM in assay [3] (Homo sapiens, PC-3, 72 h). The concentration for half-maximal inhibition (IC50) in assay [2] was 1.9 nM.
Regarding `COc1ncc(-c2ccc3nccc(/C=C/C(=O)N4CCC(O)CC4)c3c2)cc1NS(=O)(=O)c1ccc(F)cc1F` [8k, (E)-2,4-difluoro-N-(5-(4-(3-(4-hydroxypiperidin-1-yl)-3-oxoprop-1-en-1-yl)quinolin-6-yl)-2-methoxypyridin-3-yl)benzenesulfonamide], the “GI50 HCT116” value in assay [1] is recorded as “sub-micromolar”. For the same compound, the GI50 in assay [1] is 320 nM; in assay [3] (Homo sapiens, PC-3, 72 h), less than 500 nM; in assay [3], 280 nM. For the same compound, half-maximal inhibition in assay [2] (IC50) was put at 0.79 nM.
As to `COc1ncc(-c2ccc3nccc(/C=C/C(=O)N4CCCC(O)C4)c3c2)cc1NS(=O)(=O)c1ccc(F)cc1F` (stereo not shown) [8l, (E)-2,4-difluoro-N-(5-(4-(3-(3-hydroxypiperidin-1-yl)-3-oxoprop-1-en-1-yl)quinolin-6-yl)-2-methoxypyridin-3-yl)benzenesulfonamide], the 50% growth inhibitory concentration (GI50) was found to be 1560 nM in assay [1] and 1310 nM in assay [3] (Homo sapiens, PC-3, 72 h). In addition, in assay [2], the IC50 was 0.75 nM.
The matching figures for `COc1ncc(-c2ccc3nccc(/C=C/C(=O)N4CCC(CO)CC4)c3c2)cc1NS(=O)(=O)c1ccc(F)cc1F` [8m, (E)-2,4-difluoro-N-(5-(4-(3-(4-(hydroxymethyl)piperidin-1-yl)-3-oxoprop-1-en-1-yl)quinolin-6-yl)-2-methoxypyridin-3-yl)benzenesulfonamide]: 1290 nM, 2560 nM and 0.68 nM.
`COc1ncc(-c2ccc3nccc(/C=C/C(=O)NCCN4CCOCC4)c3c2)cc1NS(=O)(=O)c1ccc(F)cc1F` [8n, (E)-3-(6-(5-((2,4-difluorophenyl)sulfonamido)-6-methoxypyridin-3-yl)quinolin-4-yl)-N-(2-morpholinoethyl)acrylamide]: the GI50 amounted to 1790 nM in assay [1] and 1430 nM in assay [3] (Homo sapiens, PC-3, 72 h). In addition, the IC50 in assay [2] is 1.1 nM.
Consider `COc1ncc(-c2ccc3nccc(/C=C/C(=O)Nc4ccccc4)c3c2)cc1NS(=O)(=O)c1ccc(F)cc1F` [8o, (E)-3-(6-(5-((2,4-difluorophenyl)sulfonamido)-6-methoxypyridin-3-yl)quinolin-4-yl)-N-phenylacrylamide], for which the GI50 in assay [1] turned out to be 1520 nM; in assay [3] (Homo sapiens, PC-3, 72 h), 4830 nM. This compound displayed an IC50 in assay [2] of 1.8 nM.
On to `COc1ncc(-c2ccc3nccc(-c4ccnnc4)c3c2)cc1NS(=O)(=O)c1ccc(F)cc1F` [GSK2126458, reference compound], for which the GI50 was 180 nM in assay [1] and 220 nM in assay [3] (Homo sapiens, PC-3, 72 h). The same compound gave an IC50 in assay [7] of 0.44 nM.
As for `COc1ncc(-c2ccc3ncccc3c2)cc1NS(=O)(=O)c1ccc(F)cc1F` [compound 10, 2,4-Difluoro-N-(2-methoxy-5-(quinolin-6-yl)pyridin-3-yl)benzenesulfonamide], the GI50 stood at 3670 nM in assay [1] and 7160 nM in assay [3] (Homo sapiens, PC-3, 72 h). Moreover, in assay [2], the IC50 came out at 14.3 nM.
